This assay concerns the target T1, Adrenergic receptor alpha-1 (Rattus norvegicus, UniProt P15823+P23944+P43140).
T1 sequence (P15823 whole entry): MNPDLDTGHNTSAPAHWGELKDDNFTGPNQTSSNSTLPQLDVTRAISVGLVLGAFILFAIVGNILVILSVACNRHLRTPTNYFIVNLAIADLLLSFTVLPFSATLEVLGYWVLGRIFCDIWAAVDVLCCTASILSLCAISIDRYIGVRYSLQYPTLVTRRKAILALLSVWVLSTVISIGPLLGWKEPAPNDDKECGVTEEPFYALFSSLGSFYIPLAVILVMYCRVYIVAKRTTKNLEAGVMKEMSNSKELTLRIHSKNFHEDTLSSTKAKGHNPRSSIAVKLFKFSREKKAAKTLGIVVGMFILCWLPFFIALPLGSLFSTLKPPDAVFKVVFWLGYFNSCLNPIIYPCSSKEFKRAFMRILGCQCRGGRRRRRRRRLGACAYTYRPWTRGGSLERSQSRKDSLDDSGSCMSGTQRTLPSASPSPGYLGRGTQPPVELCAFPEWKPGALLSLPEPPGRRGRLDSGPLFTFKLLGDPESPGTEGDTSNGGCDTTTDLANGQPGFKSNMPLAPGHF
T1 sequence (P23944 whole entry): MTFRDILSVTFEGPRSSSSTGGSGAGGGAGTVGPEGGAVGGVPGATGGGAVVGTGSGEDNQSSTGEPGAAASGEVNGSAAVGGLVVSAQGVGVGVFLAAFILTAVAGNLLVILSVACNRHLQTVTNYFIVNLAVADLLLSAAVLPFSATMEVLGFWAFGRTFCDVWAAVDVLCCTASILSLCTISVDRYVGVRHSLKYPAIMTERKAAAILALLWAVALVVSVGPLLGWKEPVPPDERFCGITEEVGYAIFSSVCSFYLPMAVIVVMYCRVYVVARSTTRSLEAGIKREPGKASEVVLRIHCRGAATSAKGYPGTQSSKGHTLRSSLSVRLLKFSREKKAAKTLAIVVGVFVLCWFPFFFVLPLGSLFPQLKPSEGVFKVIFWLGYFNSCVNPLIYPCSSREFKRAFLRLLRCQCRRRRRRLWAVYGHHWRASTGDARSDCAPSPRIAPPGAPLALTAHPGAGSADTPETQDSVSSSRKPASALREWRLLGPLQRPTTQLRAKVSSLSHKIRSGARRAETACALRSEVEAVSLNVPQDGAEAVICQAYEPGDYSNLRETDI
T1 sequence (P43140 whole entry): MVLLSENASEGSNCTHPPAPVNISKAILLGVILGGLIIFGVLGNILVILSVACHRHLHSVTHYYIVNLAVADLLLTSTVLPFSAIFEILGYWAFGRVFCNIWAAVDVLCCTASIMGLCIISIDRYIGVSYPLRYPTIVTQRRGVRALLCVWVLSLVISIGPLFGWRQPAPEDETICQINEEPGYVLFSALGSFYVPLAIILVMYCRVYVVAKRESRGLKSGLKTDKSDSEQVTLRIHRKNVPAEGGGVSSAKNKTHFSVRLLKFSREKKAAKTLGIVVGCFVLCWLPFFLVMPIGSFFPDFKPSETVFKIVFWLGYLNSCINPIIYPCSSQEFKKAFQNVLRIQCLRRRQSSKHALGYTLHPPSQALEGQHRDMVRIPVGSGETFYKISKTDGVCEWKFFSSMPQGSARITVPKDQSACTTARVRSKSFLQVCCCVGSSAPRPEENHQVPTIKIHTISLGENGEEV
Nature of the assay: Antagonist activity at alpha1 adrenoceptor in Sprague-Dawley rat aorta assessed as inhibition of norepinephrine-induced contraction treated 30 mins before norepinephrine challenge.
The term pA2 denotes the negative logarithm of the molar antagonist concentration that doubles the agonist concentration needed for the same response. Regarding `COc1cc2c(cc1OC)C(c1ccccc1[N+](=O)[O-])N(CCOc1ccccc1)CC2` (stereo not drawn), the pA2 came to 9.01.
For `COc1ccc2c(c1)C(c1ccccc1[N+](=O)[O-])N(CCOc1ccccc1)CC2` (stereo not drawn), the pA2 worked out at 8.11.
With `COc1ccc(NCCOc2ccccc2)c(C2c3cc(OC)c(OC)cc3CCN2CCOc2ccccc2)c1` (stereo not drawn) the figure was 8.34.
Then `Nc1ccccc1C1c2ccccc2CCN1CCOc1ccccc1` (stereo not drawn), with 5.46; and `COc1ccc(N)c(C2c3cc(OC)c(OC)cc3CCN2CCOc2ccccc2)c1` (stereo not drawn), with 7.51.
With `O=[N+]([O-])c1ccccc1C1c2ccccc2CCN1CCOc1ccccc1` (stereo not drawn), the pA2 was determined as 7.94.
As for `COc1ccc2c(c1)C(c1ccccc1NCCOc1ccccc1)N(CCOc1ccccc1)CC2` (stereo not drawn), the pA2 was determined as 6.72.
With `COc1cc2c(cc1OC)C(c1ccccc1NCCOc1ccccc1)N(CCOc1ccccc1)CC2` (stereo not drawn) the figure was 8.33; with `COc1cc2c(cc1OC)C(Cc1ccccc1)N(CCOc1ccccc1)CC2` (stereo not drawn), 8.23; with `c1ccc(OCCNc2ccccc2C2c3ccccc3CCN2CCOc2ccccc2)cc1` (stereo not drawn), 7.71.
With `COc1cc2c(cc1OC)C(c1ccccc1N)N(CCOc1ccccc1)CC2` (stereo not drawn) the figure was 7.66.
Then `COc1ccc2c(c1)C(c1ccccc1N)N(CCOc1ccccc1)CC2` (stereo not drawn), with 7.36; and `COc1ccc([N+](=O)[O-])c(C2c3cc(OC)c(OC)cc3CCN2CCOc2ccccc2)c1` (stereo not drawn), with 8.46.

The values are drawn from ChEMBL document CHEMBL1138572, “The synthesis of N-phenoxyethyl-1-substituted-1,2,3,4-tetrahydroisoquinolines and their alpha1-adrenoceptor blocking activity” (Eur J Med Chem, 2009).
